Values quoted from earlier work as cited in patent EP0986632B1, “DELIVERY SYSTEMS” (THE PROCTER & GAMBLE COMPANY, priority 1997, dated 1998).

Conditions: 25°C; from M. L. Tobe, Adv. Inorg Bioinorg. Mech. (1983), 2, Table 1 at page 17

Row | base hydrolysis rates (kOH) [M⁻¹ s⁻¹] | Compound
1 | 0.0005 | N#CS [NCS^-]
2 | 0.00025 | oxalate
3 | 0.00096 | CC(=O)O [acetate]

Row | Compound | base hydrolysis rates (kOH) [M⁻¹ s⁻¹]
4 | O=CO [formate] | 0.00058
